Assay results reported in patent US9943082B2, “Ternary fungicidal mixtures” (BAYER CROPSCIENCE AG, priority 2012, dated 2018).

Test system: Puccinia triticina
Assay: Puccinia triticina test (wheat)/preventive
Assay type: in vivo
Settings: preventive spray, evaluated 8 days after inoculation
Method: To produce a suitable preparation of active compound, 1 part by weight of active compound or active compound combination is mixed with the stated amounts of solvent and emulsifier, and the concentrate is diluted with water to the desired concentration.
To test for preventive activity, young plants are sprayed with the preparation of active compound or active compound combination at the stated rate of application.
After the spray coating has been dried, the plants are sprayed with a spore suspension of Puccinia triticina. The plants remain for 48 hours in an incubation cabinet at approximately 20° C. and a relative atmospheric humidity of approximately 100%.
The plants are placed in the greenhouse at a temperature of approximately 20° C. and a relative atmospheric humidity of approximately 80%.
The test is evaluated 8 days after the inoculation. 0% means an efficacy which corresponds to that of the untreated control, while an efficacy of 100% means that no disease is observed.

Structure (SMILES) | Efficacy in % found (10 ppm a.i.) | further results
OC(Cc1ccccc1Cl)(Cn1nc[nH]c1=S)C1(Cl)CC1 (centres unmarked) [2.23 prothioconazole, prothioconazole] | – | Efficacy in % found (20 ppm a.i.): 0%
CO/C=C(/C(=O)OC)c1ccccc1Oc1cc(Oc2ccccc2C#N)ncn1 [3.2 azoxystrobin, azoxystrobin] | 78% | –
COC(=O)N(OC)c1ccccc1COc1ccn(-c2ccc(Cl)cc2)n1 [3.14 pyraclostrobin, pyraclostrobin] | 22% | –
CON=C(C(=O)OC)c1ccccc1CON=C(C)c1cccc(C(F)(F)F)c1 [3.15 trifloxystrobin, trifloxystrobin] | 33% | –
CC1CC(C)(C)c2cccc(NC(=O)c3cn(C)nc3C(F)F)c21 (centres unmarked) [(I-1), 3-(difluoromethyl)-1-methyl-N-(1,1,3-trimethyl-2,3-dihydro-1H-inden-4-yl)-1H-pyrazole-4-carboxamide] | – | Efficacy in % found (30 ppm a.i.): 78%
